From the supplement of paper PMC4862054

These compounds were tested on CAL-51 (assay: normalised response (% of control), CellTiter-Glo; higher = more viable cells (100 = DMSO, 0 = benzethonium chloride kill control)). Details: incubation time: 72 h.
In short: (§1)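 Normalised signals at single concentrations make up the values. They come from breast cancer cell lines seeded (20 µl suspension) into 384-well plates with compound at 5 concentrations in 10-fold steps over a compound-specific 10,000-fold range, incubated 72 h, and read for CellTox Green fluorescence then CellTiter-Glo luminescence. Each plate was normalised to 0.1 % DMSO (100) and a positive kill control (0).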
Work on `O=C(NC[C@H](O)CO)c1ccncc1Nc1ccc(I)cc1F` [Pimasertib] (1 nM) yielded a normalised response of 62.2%.
`O=C(CCBr)N1CCN(C(=O)CCBr)CC1` [Pipobroman] (1 nM) showed a normalised response of 106%.
Compound `O=C(CCBr)N1CCN(C(=O)CCBr)CC1` [Pipobroman] (10 nM) has a normalised response of 89.7%.
With `c1cc(CN2CCCNCCNCCCNCC2)ccc1CN1CCCNCCNCCCNCC1` [Plerixafor] (1 nM) the normalised response was 82.4%.
With `C[C@]12C=CC(=O)C=C1CC[C@@H]1[C@@H]2[C@@H](O)C[C@@]2(C)[C@H]1CC[C@]2(O)C(=O)CO` [Prednisolone] (1 nM) the normalised response was 84.8%.
`C[C@]12C=CC(=O)C=C1CC[C@@H]1[C@@H]2[C@@H](O)C[C@@]2(C)[C@H]1CC[C@]2(O)C(=O)CO` [Prednisolone] (10 nM) was tested, and the normalised response was 99.4%.
In the case of `Cn1cc(CNCC2CCN(c3ncc(C(=O)NO)cn3)CC2)c2ccccc21` [Quisinostat] (0.1 nM), the normalised response is reported as 84.2%.
In the case of `Cn1cc(CNCC2CCN(c3ncc(C(=O)NO)cn3)CC2)c2ccccc21` [Quisinostat] (1 nM), the normalised response is reported as 121%.

What follows are compounds tested on HDQ-P1 in the same assay as above. Details: incubation time: 72 h.
In short: as §1
`Cc1c(CN2CCN(C(=O)[C@H](C)O)CC2)sc2c(N3CCOCC3)nc(-c3cnc(N)nc3)nc12` [GDC-0980] (1 nM) showed a normalised response of 103%.
`Cc1c(CN2CCN(C(=O)[C@H](C)O)CC2)sc2c(N3CCOCC3)nc(-c3cnc(N)nc3)nc12` [GDC-0980] (10 nM) showed a normalised response of 94.4%.
`Cc1cccc(-c2nn3c(c2-c2ccnc4ccc(C(N)=O)cc24)CCC3)n1` [Galunisertib] (0.1 nM) gave a normalised response of 104%.
`Nc1cccc2c1CN(C1CCC(=O)NC1=O)C2=O` (stereo not given) [Lenalidomide] (1 nM) gave a normalised response of 97.9%.
`Nc1cccc2c1CN(C1CCC(=O)NC1=O)C2=O` (stereo not given) [Lenalidomide] (10 nM) was tested, and the normalised response was 99.9%.
`C[C@]12O[C@H](C[C@]1(O)CO)n1c3ccccc3c3c4c(c5c6ccccc6n2c5c31)CNC4=O` [Lestaurtinib] (0.1 nM) showed a normalised response of 100%.
With `O=C1c2c(O)ccc(O)c2C(=O)c2c(NCCNCCO)ccc(NCCNCCO)c21` [Mitoxantrone] (0.1 nM) the normalised response was 102%.
`O=C1c2c(O)ccc(O)c2C(=O)c2c(NCCNCCO)ccc(NCCNCCO)c21` [Mitoxantrone] (1 nM) showed a normalised response of 96.2%.
In the case of `Nc1ccccc1NC(=O)c1ccc(CNc2nccc(-c3cccnc3)n2)cc1` [Mocetinostat] (1 nM), the normalised response is reported as 101%.
With `COc1nc(N)nc2c1ncn2[C@@H]1O[C@H](CO)[C@@H](O)[C@@H]1O` [Nelarabine] (1 nM) the normalised response was 90.5%.
In the case of `COc1nc(N)nc2c1ncn2[C@@H]1O[C@H](CO)[C@@H](O)[C@@H]1O` [Nelarabine] (10 nM), the normalised response is reported as 89.9%.
In the case of `Cc1ccc(Nc2nccc(N(C)c3ccc4c(C)n(C)nc4c3)n2)cc1S(N)(=O)=O` [Pazopanib] (1 nM), the normalised response is reported as 101%.
Compound `CS(=O)(=O)N1CCN(Cc2cc3nc(-c4cccc5[nH]ncc45)nc(N4CCOCC4)c3s2)CC1` [Pictilisib] (10 nM) has a normalised response of 95.3%.
`O=C(NC[C@H](O)CO)c1ccncc1Nc1ccc(I)cc1F` [Pimasertib] (1 nM) gave a normalised response of 93.8%.
`O=C(CCBr)N1CCN(C(=O)CCBr)CC1` [Pipobroman] (1 nM) was tested, and the normalised response was 104%.
With `O=C(CCBr)N1CCN(C(=O)CCBr)CC1` [Pipobroman] (10 nM) the normalised response was 105%.
Compound `c1cc(CN2CCCNCCNCCCNCC2)ccc1CN1CCCNCCNCCCNCC1` [Plerixafor] (1 nM) has a normalised response of 103%.
`C[C@]12C=CC(=O)C=C1CC[C@@H]1[C@@H]2[C@@H](O)C[C@@]2(C)[C@H]1CC[C@]2(O)C(=O)CO` [Prednisolone] (1 nM) was tested, and the normalised response was 101%.
Work on `C[C@]12C=CC(=O)C=C1CC[C@@H]1[C@@H]2[C@@H](O)C[C@@]2(C)[C@H]1CC[C@]2(O)C(=O)CO` [Prednisolone] (10 nM) yielded a normalised response of 100%.
Work on `Cn1cc(CNCC2CCN(c3ncc(C(=O)NO)cn3)CC2)c2ccccc21` [Quisinostat] (0.1 nM) yielded a normalised response of 100%.
Work on `Cn1cc(CNCC2CCN(c3ncc(C(=O)NO)cn3)CC2)c2ccccc21` [Quisinostat] (1 nM) yielded a normalised response of 94.3%.

The compounds below were run on MCF-10A in the same assay as above. Details: incubation time: 72 h.
In short: as §1
`Cc1c(CN2CCN(C(=O)[C@H](C)O)CC2)sc2c(N3CCOCC3)nc(-c3cnc(N)nc3)nc12` [GDC-0980] (1 nM) gave a normalised response of 108%.
`Cc1c(CN2CCN(C(=O)[C@H](C)O)CC2)sc2c(N3CCOCC3)nc(-c3cnc(N)nc3)nc12` [GDC-0980] (10 nM) gave a normalised response of 109%.
For `Cc1cccc(-c2nn3c(c2-c2ccnc4ccc(C(N)=O)cc24)CCC3)n1` [Galunisertib] (0.1 nM), the normalised response was 109%.
In the case of `Nc1cccc2c1CN(C1CCC(=O)NC1=O)C2=O` (stereo not given) [Lenalidomide] (1 nM), the normalised response is reported as 96.1%.
For `Nc1cccc2c1CN(C1CCC(=O)NC1=O)C2=O` (stereo not given) [Lenalidomide] (10 nM), the normalised response was 104%.
`C[C@]12O[C@H](C[C@]1(O)CO)n1c3ccccc3c3c4c(c5c6ccccc6n2c5c31)CNC4=O` [Lestaurtinib] (0.1 nM) gave a normalised response of 92.9%.
With `O=C1c2c(O)ccc(O)c2C(=O)c2c(NCCNCCO)ccc(NCCNCCO)c21` [Mitoxantrone] (0.1 nM) the normalised response was 103%.
Work on `O=C1c2c(O)ccc(O)c2C(=O)c2c(NCCNCCO)ccc(NCCNCCO)c21` [Mitoxantrone] (1 nM) yielded a normalised response of 97.8%.
Compound `Nc1ccccc1NC(=O)c1ccc(CNc2nccc(-c3cccnc3)n2)cc1` [Mocetinostat] (1 nM) has a normalised response of 91.6%.
With `COc1nc(N)nc2c1ncn2[C@@H]1O[C@H](CO)[C@@H](O)[C@@H]1O` [Nelarabine] (1 nM) the normalised response was 79.1%.
In the case of `COc1nc(N)nc2c1ncn2[C@@H]1O[C@H](CO)[C@@H](O)[C@@H]1O` [Nelarabine] (10 nM), the normalised response is reported as 88.7%.
`Cc1ccc(Nc2nccc(N(C)c3ccc4c(C)n(C)nc4c3)n2)cc1S(N)(=O)=O` [Pazopanib] (1 nM) showed a normalised response of 94.8%.
`CS(=O)(=O)N1CCN(Cc2cc3nc(-c4cccc5[nH]ncc45)nc(N4CCOCC4)c3s2)CC1` [Pictilisib] (10 nM) gave a normalised response of 102%.
Work on `O=C(NC[C@H](O)CO)c1ccncc1Nc1ccc(I)cc1F` [Pimasertib] (1 nM) yielded a normalised response of 82.8%.
Compound `O=C(CCBr)N1CCN(C(=O)CCBr)CC1` [Pipobroman] (1 nM) has a normalised response of 103%.
With `O=C(CCBr)N1CCN(C(=O)CCBr)CC1` [Pipobroman] (10 nM) the normalised response was 109%.
With `c1cc(CN2CCCNCCNCCCNCC2)ccc1CN1CCCNCCNCCCNCC1` [Plerixafor] (1 nM) the normalised response was 81.4%.
`C[C@]12C=CC(=O)C=C1CC[C@@H]1[C@@H]2[C@@H](O)C[C@@]2(C)[C@H]1CC[C@]2(O)C(=O)CO` [Prednisolone] (1 nM) showed a normalised response of 104%.
For `C[C@]12C=CC(=O)C=C1CC[C@@H]1[C@@H]2[C@@H](O)C[C@@]2(C)[C@H]1CC[C@]2(O)C(=O)CO` [Prednisolone] (10 nM), the normalised response was 112%.
`Cn1cc(CNCC2CCN(c3ncc(C(=O)NO)cn3)CC2)c2ccccc21` [Quisinostat] (0.1 nM) was tested, and the normalised response was 109%.
With `Cn1cc(CNCC2CCN(c3ncc(C(=O)NO)cn3)CC2)c2ccccc21` [Quisinostat] (1 nM) the normalised response was 107%.
